{
  "source": "paper doi:10.1101/2021.05.29.446083v1",
  "about": "(biorxiv, 2021)",
  "key": {"5-HT1F [1]": {"target": "T1, 5-HT1F (Homo sapiens, UniProt P30939)", "T1 sequence (P30939 1-366)": "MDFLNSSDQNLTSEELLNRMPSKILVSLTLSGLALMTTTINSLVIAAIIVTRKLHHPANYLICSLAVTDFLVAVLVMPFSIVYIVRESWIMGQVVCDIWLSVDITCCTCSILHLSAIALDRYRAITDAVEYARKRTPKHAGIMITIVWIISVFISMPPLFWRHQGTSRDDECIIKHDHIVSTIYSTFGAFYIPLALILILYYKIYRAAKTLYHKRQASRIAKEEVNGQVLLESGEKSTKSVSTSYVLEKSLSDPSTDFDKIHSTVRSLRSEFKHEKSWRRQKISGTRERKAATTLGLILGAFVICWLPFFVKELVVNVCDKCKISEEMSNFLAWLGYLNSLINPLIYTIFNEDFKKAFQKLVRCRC", "assay": "NanoBiT Gi recruitment assay", "format": "cell-based"}, "5-HT1F [2]": {"target": "T2, 5-HT1F (Homo sapiens, UniProt P30939, I104A)", "T2 sequence (P30939 1-366 I104A)": "T1 sequence (P30939 1-366) with I104A", "assay": "NanoBiT Gi recruitment assay", "format": "cell-based"}, "5-HT1F [3]": {"target": "T3, 5-HT1F (Homo sapiens, UniProt P30939, F310A)", "T3 sequence (P30939 1-366 F310A)": "T1 sequence (P30939 1-366) with F310A", "assay": "NanoBiT Gi recruitment assay", "format": "cell-based"}, "5-HT1F–Gi1 complex": {"target": "5-HT1F–Gi1 complex (Homo sapiens, UniProt P30939)", "assay": "cryo-EM structure, […] Å", "settings": "orthosteric and extended binding pocket; 10 μM lasmiditan, pH 7.4"}},
  "note": "Changes are numbered by the printed parent chain.",
  "data": [
    {"smiles": "CN1CCC(C(=O)c2cccc(NC(=O)c3c(F)cc(F)cc3F)n2)CC1", "note": "[lasmiditan]", "values": [
      {"measurement": "EC50", "setting": "5-HT1F [1]", "result": 30.2, "unit": "nM"},
      {"measurement": "EC50", "setting": "5-HT1F [2]", "result": 2190, "unit": "nM"},
      {"measurement": "EC50", "setting": "5-HT1F [3]", "result": "> 100000", "unit": "nM"},
      {"measurement": "cryo-EM structure, 3.4 Å", "setting": "5-HT1F–Gi1 complex", "result": "the lasmiditan-bound 5-HT1F–Gi complex"}
    ]}
  ]
}
